Reference: patent US20260306640A1, “TECHNOLOGIES TARGETING CELL STATES” (Auron Therapeutics, Inc., priority 2023, published 2026)

How the values were obtained:
[1] = system: NCI-H1048 cells; assay: Cell growth inhibition (cell count, 8 days), small cell lung cancer NCI-H1048 cells; type: cell-based; conditions: Homo sapiens, 192 h, cell count relative to DMSO control after 8 days, FIG. 1 (C)
Description: (§1) FIG. 1. Provided compounds can provide various activities including inhibiting tumor growth in vivo. (A): Provided compounds can inhibit tumor growth in vivo. Nude Balb/c mice were inoculated with NCI-H1048 cells in Matrigel. Tumors were allowed to grow up to about 200 mm^3 and mice were then randomized into two groups. Mice were dosed intraperitoneally (i.p.) once per week with vehicle or 30 mg/kg compound 22. Tumor size was measured every three to four days and mice were sacrificed once vehicle tumors reached 2000 mm^3. Error bar is SEM. Dosing started at day 17 post tumor inoculation. (B): Provided technologies can reduce KAT2A and KAT2B levels and histone acetylation levels. […] Vehicle is DMSO. […] Cell count data relative to DMSO control after 8 days of treatment with compound 22 are presented as examples to confirm inhibition. GI50=6 nM. (D): Provided technologies can inhibit tumor growth in vivo. Nude balb/c mice inoculated with H1048 tumors were dosed intraperitoneally once per week (qw i.p.) with vehicle (HbCD) or compound 22. Average tumor volumes+/−SEM from 6 mice are represented. […] See also (A). […] Certain body weights relative to starting weight are presented as examples to confirm tolerability and safety. (F): Provided technologies can reduce KAT2A and KAT2B levels and histone acetylation levels in tumor in vivo. […]

[2] = system: NCI-H1048 cells; assay: Cell growth inhibition, SCLC cell line NCI-H1048 (cell count, day 11); type: cell-based, human; conditions: for GI50: Homo sapiens
Source text: Among other things, provided technologies are useful for treating various diseases, disorders, or conditions. For example, in some embodiments, provided technologies are useful for treating cancer as confirmed in the present Example. […] In some embodiments, provided technologies can inhibit cell proliferation. In some embodiments, the present disclosure provides technologies for assessing various technologies, e.g., compounds, compositions, or methods. Among other things, the present Example provides technologies, e.g., cell growth inhibition assay, for assessing various technologies. […] In some embodiments, the following cell growth inhibition methods are utilized to assess provided technologies.
SCLC: SCLC cell lines NCI-H1048 and NCI-H1876 were cultured in DMEM F12 media with 5% FBS, 1% Penicillin/Streptomycin and HITES supplement (Hydrocortisone, Insulin, Transferrin, Estradiol and Sodium Selenite). NCI-H1048 cells were plated at 10,000 cells/well of a 24-well plate and NCI-H1876 cells were plated at 20,000 cells/well of a 96-well plate. Compound and media were replenished every two days out to day 11 and 10 respectively. Cells were then trypsinized and counted using either hemocytometer or an automated Countess cell counter.
In some assessments, for cell growth inhibition, cells, e.g., MOLM13, NCI-H1048, and LASCPC-01 cells, were counted using a hemocytometer or automated cell counting in triplicates. In some assessments, proliferation in NEPC organoids as measured with Cell Titer Glo reagent (Promega). Growth inhibition was determined relative to vehicle control.

[3] = system: histone acetylation (e.g., AcH3K9); assay: Histone H3K9 acetylation (AcH3K9), Western Blot, NCI-H1048 cells; type: cell-based, human; conditions: FIG. 1
Description: In some embodiments, an assessment is performed using cells. In some embodiments, cells were treated with various compounds before assessing KAT2A and/or KAT2B levels, histone (e.g., H3K9) acetylation levels, cell states, growth, etc.
Western Blot: In some assessments, MOLM13, NCI-H1048, LASCPC-01 and NEPC organoid cells were treated with compounds at certain concentrations for certain periods of time, and cell pellets were lysed by adding 1-part 4×laemmli Sample buffer (e.g., Bio-Rad Catalog #1610747) along with Mercaptoethanol (e.g., Bio-Rad Catalog #1610710) according to manufacturer's instructions, and 1-part RIPA buffer with 2×protease and phosphatase inhibitor. The samples were sonicated 30% amplitude, 35 seconds on and 35 seconds off for 1 cycle and boiled at 95° C. for 5 minutes. 30-35 μL of samples were loaded on a 4-15% Criterion™ TGX Stain-Free™ Protein Gel (Bio-rad, 5678084). In some assessments, NCI-H1048 flash frozen tumor pieces were resuspended in RIPA buffer and homogenized on TissueLyser II with steel beads at 30 Hz for 3 minutes. Samples were then centrifuged at […] at 4° C. for 15 minutes. BCA protein determination was performed and samples normalized for 1.95 ug/uL. 19.5 uL were loaded and run on similar gels as cell pellets. […]

[4] = target: KAT2A (Homo sapiens, UniProt Q92830); assay: Western blot of KAT2A level in NCI-H1048 cells, 24 h; type: cell-based; parameters: degrader, Western blot; conditions: various concentrations, FIG. 1 (B)
Description: as §1

[5] = target: KAT2B (Homo sapiens, UniProt Q92831); assay: Western blot of KAT2B level in neuroendocrine prostate cancer LASCPC-01 cells, 24 hours; type: cell-based; parameters: degrader, Western blot; conditions: FIG. 3 (A)
Description: FIG. 3. Provided compounds can provide various activities. (A): Provided technologies can reduce KAT2A and KAT2B levels and histone acetylation levels. […] Cell viability (Cell Titer Glo) data relative to DMSO control after 7 days of treatment with compound 22 are presented as examples to confirm inhibition. GI50=5 nM. (C): Provided technologies can modulate cell states and induce differentiation. […] (D): Provided technologies can reduce KAT2A and KAT2B levels and histone acetylation levels including in neuroendocrine prostate cancer primary patient organoid. […] Concentrations are nM. […] Cell viability data relative to DMSO control after 21 days of treatment with compound 22 are presented as examples to confirm inhibition. GI50=3 nM. (F): Provided technologies can modulate cell states and induce differentiation.

Sequence of KAT2B (Q92831 whole entry): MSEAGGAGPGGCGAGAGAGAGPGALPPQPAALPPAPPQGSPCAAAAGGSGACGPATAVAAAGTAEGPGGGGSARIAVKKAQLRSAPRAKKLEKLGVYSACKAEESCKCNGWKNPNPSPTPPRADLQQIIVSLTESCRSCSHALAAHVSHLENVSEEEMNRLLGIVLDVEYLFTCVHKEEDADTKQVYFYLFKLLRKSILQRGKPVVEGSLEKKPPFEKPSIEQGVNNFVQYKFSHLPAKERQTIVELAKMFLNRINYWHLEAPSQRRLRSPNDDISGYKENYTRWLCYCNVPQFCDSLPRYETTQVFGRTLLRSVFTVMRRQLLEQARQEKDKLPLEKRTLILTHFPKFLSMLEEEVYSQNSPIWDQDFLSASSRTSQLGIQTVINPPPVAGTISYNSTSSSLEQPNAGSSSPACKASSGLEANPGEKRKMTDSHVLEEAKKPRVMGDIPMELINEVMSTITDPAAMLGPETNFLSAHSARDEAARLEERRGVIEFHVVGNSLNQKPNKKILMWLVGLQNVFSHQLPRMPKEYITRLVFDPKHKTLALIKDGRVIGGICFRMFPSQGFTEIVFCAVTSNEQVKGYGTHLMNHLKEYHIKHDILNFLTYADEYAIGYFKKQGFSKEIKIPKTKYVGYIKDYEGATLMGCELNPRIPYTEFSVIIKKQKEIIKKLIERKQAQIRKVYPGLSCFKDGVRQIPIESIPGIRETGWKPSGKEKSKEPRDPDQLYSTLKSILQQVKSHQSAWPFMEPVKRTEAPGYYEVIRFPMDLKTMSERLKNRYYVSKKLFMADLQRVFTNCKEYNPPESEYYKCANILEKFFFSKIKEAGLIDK
Sequence of KAT2A (Q92830 whole entry): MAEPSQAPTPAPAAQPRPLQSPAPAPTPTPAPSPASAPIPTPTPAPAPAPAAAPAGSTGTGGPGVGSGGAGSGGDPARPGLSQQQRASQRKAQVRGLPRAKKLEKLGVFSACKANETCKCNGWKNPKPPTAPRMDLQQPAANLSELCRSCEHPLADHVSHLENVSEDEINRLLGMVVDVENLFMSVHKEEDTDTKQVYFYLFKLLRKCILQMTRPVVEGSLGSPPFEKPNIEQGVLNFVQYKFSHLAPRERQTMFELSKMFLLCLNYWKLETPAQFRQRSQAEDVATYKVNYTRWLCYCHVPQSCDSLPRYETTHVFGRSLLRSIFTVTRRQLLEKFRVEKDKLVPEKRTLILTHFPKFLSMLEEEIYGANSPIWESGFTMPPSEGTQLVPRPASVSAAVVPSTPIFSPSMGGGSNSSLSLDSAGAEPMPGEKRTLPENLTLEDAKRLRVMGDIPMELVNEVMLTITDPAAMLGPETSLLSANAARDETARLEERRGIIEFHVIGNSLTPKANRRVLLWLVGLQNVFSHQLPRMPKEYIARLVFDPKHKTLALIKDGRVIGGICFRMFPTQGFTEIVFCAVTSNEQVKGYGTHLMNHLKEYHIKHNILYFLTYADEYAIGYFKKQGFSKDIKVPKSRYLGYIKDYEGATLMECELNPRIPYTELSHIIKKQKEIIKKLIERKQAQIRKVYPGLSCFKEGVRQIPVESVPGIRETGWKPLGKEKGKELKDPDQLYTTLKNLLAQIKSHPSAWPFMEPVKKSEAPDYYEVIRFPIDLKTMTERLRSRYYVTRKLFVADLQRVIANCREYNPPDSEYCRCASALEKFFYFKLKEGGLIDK

GI50 [1]: 6 nM | GI50 ([2]; 264 h, NCI-H1048, day 11, cell count, read-out: H1048 GI50): 1 nM | GI50 ([2]; NCI-H1048, comparison table with Ref-1, read-out: Growth GI50): 1.5 nM | reduction of KAT2A level [4]: confirm such reduction | reduction of KAT2B level [5]: confirm such reduction
Structure (SMILES): CN1C[C@H](Nc2cnn(C)c(=O)c2Br)C[C@H](c2ccc(C(=O)N3CCC(CN4CCN(c5ccc6c(c5)CN(C5CCC(=O)NC5=O)C6=O)CC4)CC3)cc2)C1 (stereo partly drawn) [Compound 22, 3-(5-(4-((1-(4-((3R,5R)-5-((5-bromo-1-methyl-6-oxo-1,6-dihydropyridazin-4-yl)amino)-1-methylpiperidin-3-yl)benzoyl)piperidin-4-yl)methyl)piperazin-1-yl)-1-oxoisoindolin-2-yl)piperidine-2,6-dione]
cell growth in vitro ([2]; NCI-H1048 cells, FIG. 1): inhibit cell growth in vitro and in vivo | histone acetylation (e.g., AcH3K9) levels [3]: reduce histone acetylation (e.g., AcH3K9) levels
